Here are results for two compounds from patent publication US20030215959A1, “Method of screening binding of a compound to a receptor” (priority 2002, published 2003).

The test system of assay [1] is non-NMDA glutamate receptors in mouse cortical cells. As to the kind of experiment: CNQX displacement assay with homogenized mouse cortical cells, visible difference absorption spectra. The class given is binding. As to conditions: homogenized mouse cortical cells with CNQX in PBS pH 7.4; test compound 100 μM; 310 nm to 450 nm; FIG. 2 traces A-B. Here is the method: Cortical neuronal cultures: Mixed cortical cell cultures containing both neurons and astrocytes were prepared from fetal mice (15-16 day gestation) as described by Asrari and Lobner (14). Briefly, dissociated cortical cells were plated on a preexisting astrocyte monolayer in a 24-well plate (a plating density of ˜2.5×10^5 cells per well). The plating medium was Eagle's minimal essential medium (MEM) (Earle's salts, supplied glutamine-free) supplemented with 5% fetal bovine serum, 5% horse serum, 2 mM glutamine and 20 mM glucose. Non-neuronal cell division was halted at 3-5 days in vitro by 3-day exposure to […] cytosine arabinoside. Cultures were maintained in humidified 5% CO2 incubators at 37° C. and were used for experiments at 14-16 days in vitro.
Absorption measurements: The UV-visible absorption spectra were obtained using Agilent 8453 or Shimadzu UV 2501 spectrometers. The spectra were recorded in the 310 nm to 450 nm range, at a spectral resolution of 2 nm, using a 1 cm quartz cuvette as the sample holder. […]
Dissociated mouse cortical cells were obtained as outlined in the Materials and Methods section. […] CNQX was added to the cells such that the final absorption of the sample in the 310 nm to 450 nm range was less than 1 absorbance unit. […]

Assay [2] addresses T1, GluR2-S1S2 (ligand-binding domain of the GluR2 subunit of the glutamate receptor) (Rattus norvegicus, UniProt P19491).
T1 construct: made in house
As to the kind of experiment: Quinoxaline (CNQX) displacement assay with GluR2-S1S2, visible difference absorption spectra. As to conditions: GluR2-S1S2 bound to 25 μM CNQX; test ligand 50 μM; phosphate buffer pH 7.4; 310 nm to 450 nm; FIG. 1 traces B-E.
Source text: To begin, a baseline or control spectrum of the free quinoxaline derivative in buffer solution is generated. A second spectrum is then taken of the quinoxaline admixed with the receptor under investigation. A difference spectrum is then generated between the first spectrum (free quinoxaline) and second spectrum (protein-bound quinoxaline). The characteristic features of this difference spectrum arise due to changes in the electronic spectrum of the quinoxaline derivative bound to the protein as compared to the electronic spectrum of the free quinoxaline. Thus, the difference spectrum can be used as the control to test for compounds that compete for the same binding site as quinoxaline derivative.
With the difference spectrum in hand as a control, a known amount of a test agent is added to a test well containing the receptor protein and the quinoxaline derivative. […] A visible spectrum is than taken of the test well. This test spectrum is then compared to the control spectrum to see if they share the same characteristic changes in the electronic character of the quinoxaline. […]

T1 sequence (P19491 411-527): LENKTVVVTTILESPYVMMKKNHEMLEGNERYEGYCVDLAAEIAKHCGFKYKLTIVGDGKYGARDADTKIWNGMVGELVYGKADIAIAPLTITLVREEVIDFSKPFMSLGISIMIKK
T1 sequence (P19491 653-796): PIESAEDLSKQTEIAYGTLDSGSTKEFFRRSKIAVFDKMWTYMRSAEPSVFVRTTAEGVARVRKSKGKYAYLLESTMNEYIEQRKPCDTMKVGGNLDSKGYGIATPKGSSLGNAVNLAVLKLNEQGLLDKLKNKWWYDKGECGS

Regarding `N[C@@H](CCC(=O)O)C(=O)O` [glutamate], the “displacement of CNQX from the non-NMDA glutamate receptors in cortical cells (difference spectrum)” value in assay [1] was “is displaced by the addition of glutamate”.

In the case of `NCCCC(=O)O` [γ-amino butyric acid], the “displacement of bound CNQX from the receptor protein (difference spectrum)” value in assay [2] is “does not displace CNQX from the protein”. Also, in assay [1], the “displacement of CNQX from the non-NMDA glutamate receptors in cortical cells (difference spectrum)” value is “CNQX is not displaced”.
